How the values were obtained:
SETFA [1] = assay: Post-emergence herbicidal activity on SETFA (giant foxtail); format: in vivo, Setaria faberi; details: post-emergence spray; lowest tested rate with 80% or greater inhibition; about 14 days after treatment
Source text: (§1) All such uses, and the biological activity enabling such uses, are embraced by the term “herbicidal” herein. Tables 15 and 16 summarize results of tests conducted as described below to determine the pre-emergence herbicidal activity, in the form of a GR80 value, of illustrative compounds of this invention. […] Where herbicidal activity was evident but 80% inhibition was not achieved at the highest rate tested (typically 1000 g/ha), an asterisk (*) is shown in the following tables. Herbicidal activity evident in the form of symptoms of phytotoxicity, in the absence of at least 80% inhibition at any rate, is indicated in the tables by “phyto”. A blank cell in the following tables indicates no herbicidal or phytotoxic response at any rate tested.
(§2) In another set of tests, the post-emergence activity of compounds of this invention was evaluated on the cool season species listed above. The following procedure was used.
(§3) A pre-prepared topsoil mixture (described above) was placed in a pot and compacted to a depth of 1.0 to 1.25 cm from the top of the pot. Seeds of each of several monocotyledonous and dicotyledonous annual plant species were placed on top of the soil The seeds were covered with a mixture of 50% topsoil and 50% Rediearth™ in sufficient quantity to level-fill the pots. The pots were then placed on a greenhouse bench and subirrigated as needed until plants growing from the seeds had emerged and reached a suitable growth stage for post-emergence treatment, typically 9 to 14 days after planting.
(§4) A known amount of each test compound dissolved or suspended in an appropriate organic solvent was diluted with a 50:50 mix of acetone and water and applied to the plants by spraying with a standard spray nozzle in a spray volume of 3,100 l/ha at a spray pressure of […] (30 psig). Control plants were not sprayed.
(§5) After treatment the plants were placed in a greenhouse with a 30/21° C. day/night temperature regime and were subsequently watered as needed for growth. Approximately 14 days after treatment, the plants were observed and herbicidal efficacy recorded as percent inhibition by comparison with control plants.

POROL [2] = assay: Post-emergence herbicidal activity on POROL (common purslane; table head prints PORAL); format: in vivo, Portulaca oleracea; details: post-emergence spray; lowest tested rate with 80% or greater inhibition; about 14 days after treatment
Source text: as §1, §2, §3, §4, §5

ABUTH [3] = assay: Post-emergence herbicidal activity on ABUTH (velvetleaf); format: in vivo, Abutilon theophrasti; details: post-emergence spray; lowest tested rate with 80% or greater inhibition; about 14 days after treatment
Source text: as §1, §2, §3, §4, §5

CIRAR [4] = assay: Post-emergence herbicidal activity on CIRAR (canada thistle, seedling); format: in vivo, Cirsium arvense; details: post-emergence spray; lowest tested rate with 80% or greater inhibition; about 14 days after treatment
Source text: as §1, §2, §3, §4, §5

BRAPP [5] = assay: Post-emergence herbicidal activity on BRAPP (broadleaf signalgrass); format: in vivo, Brachiaria platyphylla; details: post-emergence spray; lowest tested rate with 80% or greater inhibition; about 14 days after treatment
Source text: as §1, §2, §3, §4, §5

CONAR [6] = assay: Post-emergence herbicidal activity on CONAR (field bindweed); format: in vivo, Convolvulus arvensis; details: post-emergence spray; lowest tested rate with 80% or greater inhibition; about 14 days after treatment
Source text: as §1, §2, §3, §4, §5

SETFA [7] = assay: Pre-emergence herbicidal activity on SETFA (giant foxtail); format: in vivo, Setaria faberi; details: lowest tested rate giving 80% or greater inhibition, approx. 14 days after planting and treating, greenhouse
How it was run: (§6)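 GR80 values come from percent inhibition relative to untreated plants, rated roughly 14 days after planting and treating, with rates up to typically 1000 g/ha. Compound was sprayed onto the soil over freshly covered seeds as a dilution in 50:50 acetone/water; pots kept in greenhouse at 30/21° C. day/night after 0.64 cm overhead watering.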

DATST [8] = assay: Post-emergence herbicidal activity on DATST (jimsonweed); format: in vivo, Datura stramonium; details: post-emergence spray; lowest tested rate with 80% or greater inhibition; about 14 days after treatment
Source text: as §1, §2, §3, §4, §5

CONAR [9] = assay: Pre-emergence herbicidal activity on CONAR (field bindweed); format: in vivo, Convolvulus arvensis; details: lowest tested rate giving 80% or greater inhibition, approx. 14 days after planting and treating, greenhouse
How it was run: as §6

SOLNI [10] = assay: Post-emergence herbicidal activity on SOLNI (black nightshade); format: in vivo, Solanum nigrum; details: post-emergence spray; lowest tested rate with 80% or greater inhibition; about 14 days after treatment
Source text: as §1, §2, §3, §4, §5

DIGSA [11] = assay: Post-emergence herbicidal activity on DIGSA (large crabgrass); format: in vivo, Digitaria sanguinalis; details: post-emergence spray; lowest tested rate with 80% or greater inhibition; about 14 days after treatment
AMARE [12] = assay: Post-emergence herbicidal activity on AMARE (redroot pigweed); format: in vivo, Amaranthus retroflexus; details: post-emergence spray; lowest tested rate with 80% or greater inhibition; about 14 days after treatment
Source text: as §1, §2, §3, §4, §5

PANDI [13] = assay: Pre-emergence herbicidal activity on PANDI (fall panicum); format: in vivo, Panicum dichotomiflorum; details: lowest tested rate giving 80% or greater inhibition, approx. 14 days after planting and treating, greenhouse
How it was run: as §6

DIGSA [14] = assay: Pre-emergence herbicidal activity on DIGSA (large crabgrass); format: in vivo, Digitaria sanguinalis; details: lowest tested rate giving 80% or greater inhibition, approx. 14 days after planting and treating, greenhouse
How it was run: as §6

BRAPP [15] = assay: Pre-emergence herbicidal activity on BRAPP (broadleaf signalgrass); format: in vivo, Brachiaria platyphylla; details: lowest tested rate giving 80% or greater inhibition, approx. 14 days after planting and treating, greenhouse
How it was run: as §6

ABUTH [16] = assay: Pre-emergence herbicidal activity on ABUTH (velvetleaf); format: in vivo, Abutilon theophrasti; details: lowest tested rate giving 80% or greater inhibition, approx. 14 days after planting and treating, greenhouse
How it was run: as §6

POROL [17] = assay: Pre-emergence herbicidal activity on POROL (common purslane); format: in vivo, Portulaca oleracea; details: lowest tested rate giving 80% or greater inhibition, approx. 14 days after planting and treating, greenhouse
How it was run: as §6

CIRAR [18] = assay: Pre-emergence herbicidal activity on CIRAR (canada thistle, seedling); format: in vivo, Cirsium arvense; details: lowest tested rate giving 80% or greater inhibition, approx. 14 days after planting and treating, greenhouse
How it was run: as §6

AMARE [19] = assay: Pre-emergence herbicidal activity on AMARE (redroot pigweed); format: in vivo, Amaranthus retroflexus; details: lowest tested rate giving 80% or greater inhibition, approx. 14 days after planting and treating, greenhouse
How it was run: as §6

SOLNI [20] = assay: Pre-emergence herbicidal activity on SOLNI (black nightshade); format: in vivo, Solanum nigrum; details: lowest tested rate giving 80% or greater inhibition, approx. 14 days after planting and treating, greenhouse
How it was run: as §6

SORVU = assay: Post-emergence herbicidal activity on SORVU (shattercane); format: in vivo, Sorghum vulgare; details: post-emergence spray; lowest tested rate with 80% or greater inhibition; about 14 days after treatment
Source text: as §1, §2, §3, §4, §5

PANMI = assay: Post-emergence herbicidal activity on PANMI (wild proso millet); format: in vivo, Panicum miliaceum; details: post-emergence spray; lowest tested rate with 80% or greater inhibition; about 14 days after treatment
ECHCG [21] = assay: Pre-emergence herbicidal activity on ECHCG (barnyardgrass); format: in vivo, Echinochloa crus-galli; details: lowest tested rate giving 80% or greater inhibition, approx. 14 days after planting and treating, greenhouse
How it was run: as §6

PANDI [22] = assay: Post-emergence herbicidal activity on PANDI (fall panicum); format: in vivo, Panicum dichotomiflorum; details: post-emergence spray; lowest tested rate with 80% or greater inhibition; about 14 days after treatment
Source text: as §1, §2, §3, §4, §5

SORHA [23] = assay: Pre-emergence herbicidal activity on SORHA (johnsongrass, seedling); format: in vivo, Sorghum halepense; details: lowest tested rate giving 80% or greater inhibition, approx. 14 days after planting and treating, greenhouse
How it was run: as §6

CHEAL [24] = assay: Pre-emergence herbicidal activity on CHEAL (common lambsquarters); format: in vivo, Chenopodium album; details: lowest tested rate giving 80% or greater inhibition, approx. 14 days after planting and treating, greenhouse
How it was run: as §6

SORHA [25] = assay: Post-emergence herbicidal activity on SORHA (johnsongrass, seedling); format: in vivo, Sorghum halepense; details: post-emergence spray; lowest tested rate with 80% or greater inhibition; about 14 days after treatment
Source text: as §1, §2, §3, §4, §5

CHEAL [26] = assay: Post-emergence herbicidal activity on CHEAL (common lambsquarters); format: in vivo, Chenopodium album; details: post-emergence spray; lowest tested rate with 80% or greater inhibition; about 14 days after treatment
Source text: as §1, §2, §3, §4, §5

ECHCG [27] = assay: Post-emergence herbicidal activity on ECHCG (barnyardgrass); format: in vivo, Echinochloa crus-galli; details: post-emergence spray; lowest tested rate with 80% or greater inhibition; about 14 days after treatment
Source text: as §1, §2, §3, §4, §5

DATST [28] = assay: Pre-emergence herbicidal activity on DATST (jimsonweed); format: in vivo, Datura stramonium; details: lowest tested rate giving 80% or greater inhibition, approx. 14 days after planting and treating, greenhouse
How it was run: as §6

CC(CNC(=O)c1cccc(C(F)(F)F)c1)NC(=O)c1cccc(I)c1 (centres unmarked) [Example 59]
Post-emergence activity (GR80) SETFA (SETFA [1]): [empty]
Post-emergence activity (GR80) PORAL (POROL [2]): [empty]
Post-emergence activity (GR80) ABUTH (ABUTH [3]): phyto
Post-emergence activity (GR80) CIRAR (CIRAR [4]): phyto
Post-emergence activity (GR80) BRAPP (BRAPP [5]): phyto
Post-emergence activity (GR80) CONAR (CONAR [6]): phyto
Pre-emergence activity (GR80) on SETFA (SETFA [7]): 1000 g/ha
Post-emergence activity (GR80) DATST (DATST [8]): phyto
Pre-emergence activity (GR80) on CONAR (CONAR [9]): phyto
Post-emergence activity (GR80) SOLNI (SOLNI [10]): phyto
Post-emergence activity (GR80) DIGSA (DIGSA [11]): phyto
Post-emergence activity (GR80) AMARE (AMARE [12]): * (Where herbicidal activity was evident but 80% inhibition was not achieved at the highest rate tested (typically 1000 g/ha), an asterisk (*) is shown)
Pre-emergence activity (GR80) on PANDI (PANDI [13]): phyto
Pre-emergence activity (GR80) on DIGSA (DIGSA [14]): phyto
Pre-emergence activity (GR80) on BRAPP (BRAPP [15]): phyto
Pre-emergence activity (GR80) on ABUTH (ABUTH [16]): phyto
Pre-emergence activity (GR80) on PORAL (POROL [17]): 125 g/ha
Pre-emergence activity (GR80) on CIRAR (CIRAR [18]): 1000 g/ha
Pre-emergence activity (GR80) on AMARE (AMARE [19]): 250 g/ha
Pre-emergence activity (GR80) on SOLNI (SOLNI [20]): phyto
Post-emergence activity (GR80) SORVU (SORVU): [empty]
Post-emergence activity (GR80) PANMI (PANMI): [empty]
Pre-emergence activity (GR80) on ECHCG (ECHCG [21]): phyto
Post-emergence activity (GR80) PANDI (PANDI [22]): phyto
Pre-emergence activity (GR80) on SORHA (SORHA [23]): phyto
Pre-emergence activity (GR80) on CHEAL (CHEAL [24]): 500 g/ha
Post-emergence activity (GR80) SORHA (SORHA [25]): [empty]
Post-emergence activity (GR80) CHEAL (CHEAL [26]): [empty]
Post-emergence activity (GR80) ECHCG (ECHCG [27]): [empty]
Pre-emergence activity (GR80) on DATST (DATST [28]): 1000 g/ha

C[C@H](CNC(=O)c1cccc(C(F)(F)F)c1)NC(=O)Oc1ccc(Cl)cc1 [Example 231]
Post-emergence activity (GR80) SETFA (SETFA [1]): [empty]
Post-emergence activity (GR80) PORAL (POROL [2]): phyto
Post-emergence activity (GR80) ABUTH (ABUTH [3]): [empty]
Post-emergence activity (GR80) CIRAR (CIRAR [4]): [empty]
Post-emergence activity (GR80) BRAPP (BRAPP [5]): [empty]
Post-emergence activity (GR80) CONAR (CONAR [6]): phyto
Pre-emergence activity (GR80) on SETFA (SETFA [7]): phyto
Post-emergence activity (GR80) DATST (DATST [8]): * (Where herbicidal activity was evident but 80% inhibition was not achieved at the highest rate tested (typically 1000 g/ha), an asterisk (*) is shown)
Post-emergence activity (GR80) SOLNI (SOLNI [10]): [empty]
Post-emergence activity (GR80) DIGSA (DIGSA [11]): phyto
Post-emergence activity (GR80) AMARE (AMARE [12]): phyto
Pre-emergence activity (GR80) on PANDI (PANDI [13]): phyto
Pre-emergence activity (GR80) on DIGSA (DIGSA [14]): 1000 g/ha
Pre-emergence activity (GR80) on BRAPP (BRAPP [15]): phyto
Pre-emergence activity (GR80) on PORAL (POROL [17]): phyto
Pre-emergence activity (GR80) on CIRAR (CIRAR [18]): phyto
Pre-emergence activity (GR80) on AMARE (AMARE [19]): 750 g/ha
Pre-emergence activity (GR80) on SOLNI (SOLNI [20]): phyto
Post-emergence activity (GR80) SORVU (SORVU): phyto
Post-emergence activity (GR80) PANMI (PANMI): [empty]
Post-emergence activity (GR80) PANDI (PANDI [22]): phyto
Pre-emergence activity (GR80) on CHEAL (CHEAL [24]): phyto
Post-emergence activity (GR80) SORHA (SORHA [25]): phyto
Post-emergence activity (GR80) CHEAL (CHEAL [26]): phyto
Post-emergence activity (GR80) ECHCG (ECHCG [27]): [empty]
Pre-emergence activity (GR80) on DATST (DATST [28]): phyto

Reference: US20020052295A1, “Diacyl derivatives of propylene diamine having herbicidal activity” (priority 1999, published 2002)
